Here are results for four molecules from patent US5759835A, “Bacterial nitric oxide synthase” (priority 1995, dated 1998).

Entries after “also recorded” stand apart in the source; their conditions may differ.

Test [1] addresses NOSNoc. Kind of test: NOSNoc activity, oxyhemoglobin spectrophotometric assay (kinetics and inhibition). As to conditions: for Ki: model of competitive inhibition; for Mode of inhibition of NO synthesis by NOSNoc: with either L-arginine or L-NOHA as substrate; for Vmax / Km: compound as substrate of NOSNoc. The class given is biochemical, Nocardia species (NRRL 5646). As for the experimental part: Assays for NOS activity were carried out using a Shimadzu 160 spectrophotometer by observing the increase in absorbance at 401 nm at 25° C. A typical sample assay contained 50 mM potassium phosphate buffer (pH 7.5), 4 μM oxyHb, 100 μM L-arginine of L-NOHA (for kinetic experiments), 100 μM NADPH, 1 mM CaCl2, 10 μM FAD, 10 μM FMN, 80 μM H4 B, 150 μM DTT and 0.1-2 μg enzyme in a final volume of 1 ml. For assays, the reference cuvette contained all components except for L-arginine or L-NOHA. All assays were initiated by adding enzyme.

For test [2], the system named is NOSNoc. Put plainly: Stoichiometry of product formation and cofactor utilization by NOSNoc. The class given is biochemical, Nocardia species (NRRL 5646). As to conditions: compound as substrate for NOSNoc. The method, then: NOS activity was also determined by measuring the decrease in absorbance at 340 nm as NADPH was consumed during the conversation of L-arginine to L-citrulline by NOS. Furfine, E. S., et al. (1993) Biochemistry 32, pp. 8512-8517.
Bredt, D. S., and Snyder, S. H. (1989) Proc. Natl. Acad. Sci. U.S.A. 86, pp. 9030-9033. Reaction samples (50 μl, 100 μM arginine and 1 μCi radioactivity)in 2 ml of stop buffer (20 mM HEPES and 2 mM EDTA, pH 5.5) were applied to a fresh 1-ml Dowex AG50W-X8 (Na+ form, 100-200 mesh) column. Labeled citrulline was eluted with 2 ml of distilled water, and the eluates were collected. Aliquots of 0.1 ml of eluate were dissolved in 5 ml of Budget Solve cocktail in 10 ml scintillation vials, and radioactivity was measured in a Beckman LS 3801 liquid scintillation system.
Nitrite was measured spectrophotometrically using Griess reagent. Green, L. C., et al. (1982) Anal. Biochem. 126, pp. 131-138. […] After standing for 15-30 minutes at room temperature, the absorbance at 540 nm was measured. Nitrite concentrations were estimated by comparison with a standard curve at the range of 0-1.0 μg/ml prepared with standard sodium nitrite in water.
Oxygen concentrations were calculated based on the deflection of the chart recorder versus 206 μM oxygen-total oxygen content in the reaction vessel. Koppenol, W. H. (1985) Adv. Free Radical Biol. Med. 1, 91-131.
Stoichiometric determinations of oxygen consumed, NADPH oxidized, NO and citrulline formed, and kinetic experiments were carried out to confirm that L-NOHA is an intermediate in the biosynthesis of nitric oxide from L-arginine.

Where [3] appears, read: L-Arginine as substrate, mean S.D. of three determinations.
Setting [4] is: N^G -Hydroxy-L-arginine as substrate, mean S.D. of three determinations.
[5] abbreviates: EZ-FIT fit, table values are the mean S.D. of three determinations.
Where [6] appears, read: Table III, EZ-FIT fit, mean S.D. of three determinations.

For the molecule `N=C(NCCC[C@H](N)C(=O)O)N[N+](=O)[O-]` [N^G -nitro-L-arginine], the Ki at NOSNoc [1] (setting [3]) stood at 9.8 ± 0.6 µM; at NOSNoc [1] (setting [4]), 21.4 ± 1.2 µM. For the same molecule, in the test with NOSNoc [1] (listed as L-NNA), the “Mode of inhibition of NO synthesis by NOSNoc” value is “typical competitive inhibition; also recorded: reversible competitive inhibitors”.
`CNC(=N)NCCC[C@H](N)C(=O)O` [N^G -methyl-L-arginine]: the Ki on NOSNoc [1] (setting [3]) worked out at 6.2 ± 0.4 µM; on NOSNoc [1] (setting [4]) it was 21.4 ± 1.2 µM. The “Mode of inhibition of NO synthesis by NOSNoc” value in the test on NOSNoc [1] (listed as L-NMA) was “typical competitive inhibition; also recorded: reversible competitive inhibitors”.
As to `N=C(NO)NCCC[C@H](N)C(=O)O` [N^G -Hydroxy-L-arginine], the Vmax in the test with NOSNoc [1] turned out to be 549 nmol/min/mg protein. For the same molecule, the Km in the test on NOSNoc [1] (setting [5]) worked out at 15.8 µM. Also, the Vmax in the test on NOSNoc [1] (setting [6]) was found to be 303 ± 15 nmole/min/mg protein. Also, the Michaelis-Menten constant (Km) with NOSNoc [1] (value as printed in the discussion) was 15.8 µM. Moreover, in the test with NOSNoc [2], the Citrulline formation turned out to be 4.54 ± 0.21 nmol, the NADPH consump worked out at 4.38 ± 0.24 nmol, the Nitrile formation was found to be 4.57 ± 0.20 nmol and the Oxygen consump amounted to 4.46 ± 0.16 nmol.
`N=C(N)NCCC[C@H](N)C(=O)O` [L-Arginine]: the Vmax with NOSNoc [1] was 607 nmol/min/mg protein. In addition, the Km with NOSNoc [1] (setting [5]) was 5.7 µM. For the same molecule, the Vmax in the test on NOSNoc [1] (setting [6]) is 274 ± 13 nmole/min/mg protein. Further, in the test on NOSNoc [2], the Citrulline formation was 4.21 ± 0.17 nmol, the NADPH consump was found to be 8.77 ± 0.32 nmol, the Nitrile formation amounted to 4.63 ± 0.28 nmol and the Oxygen consump worked out at 8.89 ± 0.33 nmol.
